Assay results: patent US20070243180A1, “Composition Containing Reduced Coenzyme Q” (priority 2003, published 2007)

Key:
[1] = Stability testing of reduced coenzyme Q10 against autooxidation on storage in air, protected against light; format: physicochemical; conditions: in the presence of air, at 4 weeks after starting storage, HPLC
Procedure: In the examples, a reduced coenzyme Q concentration and an oxidized coenzyme Q concentration were determined by the following HPLC analysis. Column; SYMMETRY C18 (product of Waters Corporation), 250 mm (length), 4.6 mm (inside diameter), mobile phase; C2H5OH:CH3OH=4:3 (v:v), detection wavelength; 210 nm, flow rate; 1 ml/min, retention time for a reduced coenzyme Q10; 9.1 min, retention time for an oxidized coenzyme Q10; 13.3 min. Reduced coenzyme Q10 bulk powder (Q-OH bulk powder) containing 2% of oxidized coenzyme Q10 and the powdery compositions I to IV respectively obtained in Examples 1 to 4 were subjected to stability testing in the following manner. Thus, each composition (test sample) was placed in a microtube and stored, in a state protected against light, at 23° C. or 40° C. in the presence of air. After 1, 2 or 4 weeks of storage, 25 mg of each sample was sampled and dissolved in ethanol, the concentrations of oxidized coenzyme Q10 and reduced coenzyme Q10 were measured by HPLC and the percentage of reduced coenzyme Q10 in total coenzyme Q10 as contained in the composition (test sample) was determined.

[2] = Solubility testing in water; format: physicochemical; conditions: 1 g in 100 ml of water, stirred at 5,000 rpm for 30 seconds, observed after 1 hour of standing
Procedure: Coenzyme Q10 bulk powder (Q-OH bulk powder) containing 98% of reduced coenzyme Q10 and the powdery compositions obtained in Examples 1 to 4 were subjected to solubility testing in the following manner. Thus, 1 g of each composition (test sample) was added to 100 ml of water, and the mixture was stirred at 5,000 rpm for 30 seconds using a mixer and then allowed to stand.

In the case of `COc1c(O)c(C)c(C/C=C(\C)CC/C=C(\C)CC/C=C(\C)CC/C=C(\C)CC/C=C(\C)CC/C=C(\C)CC/C=C(\C)CC/C=C(\C)CC/C=C(\C)CCC=C(C)C)c(O)c1OC` [reduced coenzyme Q10], the “residual reduced coenzyme Q10 percentage relative to total coenzyme Q10 contained in the composition” value ([1]; stored at 23° C.) is reported as 41%, the “residual reduced coenzyme Q10 percentage relative to total coenzyme Q10 contained in the composition” value ([1]; stored at 40° C.) is reported as 11% and the Solubility in water [2] is reported as “Insoluble”. The Solubility in water ([2]; listed as Coenzyme Q10 bulk powder (Q-OH bulk powder)) was “insoluble, forming orange-colored oil drops floating on the water”.
